The test system of one data set is cryptococcosis. To be noted: cited from earlier work.
The nature of data set [1]: Solubility in microdilution broth assays. Type of data set: physicochemical. The protocol: FIG. 12: Low-solubility compounds in MIC assay. Representative image of MIC assay read by plate reader with growth indicated on a range from 0.04 to 0.1 OD, black to green coloration. Starting concentration 50 μg/mL for all drugs. (A) H99 cultured in wells, and (B) wells contain RPMI media and no fungal cells with green coloration indicative of false positive growth caused by drug insolubility.
To assess antifungal activity, the panel of compounds was tested for fungal growth inhibition using minimum inhibitory concentration (MIC) assays against C. neoformans and C. albicans and minimum effective concentration (MEC) assays against A. fumigatus. […] MEC values against A. fumigatus ranged from 0.6 to 2.5 μg/mL for 10 of the analogs tested. […] Overall, a majority of these analogs maintain relatively potent antifungal activity across species and represent an active library for further investigation.

A further data set relates to Cryptococcus neoformans. The data set is described as follows: MIC assay (Example 3). Type of data set: cell-based. To be noted: Cryptococcus neoformans. As for the experimental part:
(§1) In vitro antifungal activity was assessed for all fungal strains in RPMI 1640 (Sigma-Aldrich R1383). MICs were measured using Clinical and Laboratory Standards Institute (CLSI) M38-A2 and M27-A3 standard in vitro antifungal susceptibility protocols. C. neoformans and A. fumigatus testing was performed at 37° C. MECs for A. fumigatus were recorded after 48 h of growth. C. albicans testing was performed at 30° C. with a uniform concentration of 2 μg/mL of fluconazole to sensitize the cells to calcineurin inhibition.
(§2) C. neoformans clinical isolate H99 and congenic-derived strain KN99α were used (see, Nielsen K, et al., 2003. Infect Immun 71:4831-4841). KN99α-derived frr1Δ deletion mutants with nourseothricin resistance markers as part of the Madhani deletion collection (NIH funding R01AI100272) were used. C. deneoformans strains used include JEC21 and derived C21F2 (CNB1-1) and C21F3 (frr1-3) strains (see, Odom A, et al., 1997. EMBO J 16:2576-2589; Moore T D, Edman J C. 1993. Mol Cell Biol 13:1962-1970; Fox D S, et al., 2001. Mol Microbiol 39:835-849). C. albicans strain SC5314 is the wild-type strain from which mutants YAG171 (rbp1/rbp1) and YAG237 (CNB1-1/CNB1) were derived (see, Cruz M C, et al., 2001. Antimicrob Agents Chemother 45:3162-3170). A. fumigatus strain akuB^Ku80 and a derived FKBP12 mutant fkbp12A were used during antifungal screening (see, Falloon K, et al., 2015. PLoS One 10:e0137869).

Another data set relates to Candida albicans. The data set is described as follows: MIC assay (Example 3). Type of data set: cell-based. To be noted: Candida albicans, SC5314; MIC80, 30° C. with 2 μg/mL fluconazole; read-out: MIC against Candida albicans (SC5314). The protocol:
as §1, §2

Data set [2] concerns C. neoformans growth versus IL-2 in murine T cells. The data set is described as follows: Therapeutic index score (immunosuppressive fold change to antifungal fold change relative to FK506). On the set-up: species or system Cryptococcus neoformans; mouse. The note with it: Example 3; C. neoformans H99, FK506 = 1.0. From the text: To assess the therapeutic potential for these compounds, it was important to develop an approach to score and rank them based on antifungal and immunosuppressive activities. The therapeutic index score (TIscore) is a ratio of the immunosuppressive fold change to the antifungal fold change, with all values relative to the baseline FK506 activity (FIG. 6B). A TIscore of >1.0 indicates an increase in fungal specificity because the fold change of the immunosuppressive reduction is greater than the antifungal activity reduction. As an example, JH-FK-05 is 20-fold reduced for antifungal activity but about 180-fold reduced for immunosuppression. Therefore, the TIscore of JH-FK-05 is 9.1 (TIscore=182/20). The top two analogs were JH-FK-02 (TIscore=9.7) and JH-FK-05 (TIscore=9.1). Due to the similar TIscore, JH-FK-05 was prioritized to advance to animal trials on the merit of more pronounced antifungal activity compared to JH-FK-02.
Based on the in vitro fungal and mammalian calcineurin inhibition data, the panel of FK520 analogs was assessed and ranked. Therapeutic index (TI) scores were used to quantify the effects of structural modification on the compounds (Table 8). Therapeutic index scores were calculated for each analog as the ratio of relative change in immunosuppressive and antifungal activities compared to FK506 as previously utilized (see, I-Toy M J, et at. 2022. mBio 13:e0104922). This ratio of therapeutic benefit and host toxicity, or fungal and mammalian calcineurin inhibition, allowed us to quantify and rank these analogs. […] This is the greatest TI found within the library and allowed us to identify JH-FK-08 as a lead candidate for an in vivo study. Tolerability of JH-FK-08 was assessed by monitoring animal responses to drug dosing across 14 days, including changes in weight, fur condition, and behavior. A maximum dose of 40 mg/kg was tested in once a day dosing, and due to solubility limitations, the tolerability of JH-FK-08 at 60 and 80 mg/kg total daily doses was assessed by dosing two equal doses per day (FIG. 14). […] It should be noted that analogs JH-FK-12 and JH-FK-23 are also promising candidates with respective Tis of 24.7 and 24.5.

The subject of data set [3] is IL-2 expression in primary mouse CD4+ T cells (mammalian calcineurin). The data set is described as follows: In vitro immunosuppressive activity, IL-2 expression (Example 3). Type of data set: cell-based. To be noted: 72 h. The protocol: Modifications at the C-22 position reduce inhibition of mammalian calcineurin signaling Mammalian calcineurin inhibition was then assessed and found to be reduced for these FK520 analogs. The inhibition of mammalian calcineurin was assessed by measuring the reduction of IL-2 expression from primary mouse CD4^+ T cells cultured in the presence of FK506, FK520, or an analog. Calcineurin activity is required for T cell activation and cytokine production, and IL-2 production serves as an effective measure of mammalian calcineurin activity. After culturing mouse CD4′ T cells for 72 h, IL-2 expression was analyzed by flow cytometry to evaluate the immunosuppressive activity of the analogs. […] However, compound concentrations that permit high IL-2 expression are less likely to result in cell death.
Spleen and lymph nodes from C57BL/6 mice were collected and homogenized through a 40-μm filter. Pan-CD4^+ T cells were enriched using the MagniSort Mouse CD4 T Cell Enrichment Kit (Invitrogen). Thereafter, CD4^+CD25^−CD62L^hiCD44^lo naïve CD4^+ T cells were FACS-sorted using a MoFlo Astrios cell sorter (Beckman Coulter). Naïve CD4^+ T cells were cultured in Iscove's Modified Dulbecco's Medium supplemented with 10% fetal bovine serum (FBS), penicillin (10 U/mL), streptomycin (10 μg/mL), glutamine (2 mM), gentamicin (50 μg/mL), and β-mercaptoethanol (55 μM). Cells were cultured for 72 h on anti-hamster IgG-coated plates with hamster anti-CD3s antibodies, hamster anti-CD28 antibodies, neutralizing anti-IL-4 antibodies, recombinant IL-12 (10 ng/mL), and recombinant IL-2 (50 U/mL). During this culture, cells were incubated with serially diluted drugs suspended in DMSO.

Another data set relates to Aspergillus fumigatus. The data set is described as follows: MEC assay (Example 3). To be noted: strain akuB^Ku80.
The mark [4] stands for this setting: MIC90, 37° C., read-out: MIC against Cryptococcus neoformans (H99).

≈ marks a conversion by molar mass, not a printed value. Where two headings read alike, the source gives them in different places. Some results are limits rather than exact numbers.

As usually defined, the IC50 is the concentration that inhibits the measured activity by half.

As to `C=CC[C@@H]1/C=C(\C)C[C@H](C)C[C@H](OC)[C@H]2O[C@@](O)(C(=O)C(=O)N3CCCC[C@H]3C(=O)O[C@H](/C(C)=C/[C@@H]3CC[C@@H](O)[C@H](OC)C3)[C@H](C)[C@@H](O)CC1=NNC(C)=O)[C@H](C)C[C@@H]2OC` [JH-FK-01], the “interaction with fluconazole in pulmonary cryptococcosis model” value with cryptococcosis (in vivo combination therapy with fluconazole) is on record as “benefits from this synergistic interaction”. Also, the “fungal burden in animal model of cryptococcosis” value in the data set with cryptococcosis (in vivo) is reported as “significantly reduced fungal burden”.

Consider `CC[C@@H]1/C=C(\C)C[C@H](C)C[C@H](OC)[C@H]2O[C@@](O)(C(=O)C(=O)N3CCCC[C@H]3C(=O)O[C@H](/C(C)=C/C3CC[C@@H](O)[C@H](OC)C3)[C@H](C)[C@@H](O)C/C1=N/NC(=O)c1ccc(F)cc1)[C@H](C)C[C@@H]2OC` (stereo partly shown) [JH-FK-17], for which the “solubility during microdilution broth assays” value in data set [1] is on record as “exhibited solubility issues”. In addition, the MIC is 0.4 µg/mL (≈ 0.431 µM) in the data set with Cryptococcus neoformans (setting [4]); 0.4 µg/mL (≈ 0.431 µM) in the data set with Cryptococcus neoformans (Table 8, read-out: H99 MIC90); 0.4 µg/mL (≈ 0.431 µM) in the data set with Candida albicans. This compound showed a Therapeutic index in data set [2] of 13.1. Moreover, the IC50 in data set [3] came out at 9.4 nM. For the same compound, the “MEC against Aspergillus fumigatus (akuB^Ku80)” value in the data set on Aspergillus fumigatus was 1.3 µg/mL.

As for `CC[C@@H]1/C=C(\C)C[C@H](C)C[C@H](OC)[C@H]2O[C@@](O)(C(=O)C(=O)N3CCCC[C@H]3C(=O)O[C@H](/C(C)=C/C3CC[C@@H](O)[C@H](OC)C3)[C@H](C)[C@@H](O)C/C1=N/NC(=O)c1ccc3ccccc3c1)[C@H](C)C[C@@H]2OC` (stereo partly shown) [JH-FK-15], in data set [1], the “solubility during microdilution broth assays” value was “exhibited solubility issues”. For the same compound, the MIC in the data set on Cryptococcus neoformans (setting [4]) was determined as 3.1 µg/mL (≈ 3.23 µM); in the data set on Cryptococcus neoformans (Table 8, read-out: H99 MIC90), 3.1 µg/mL (≈ 3.23 µM); in the data set on Candida albicans it was 0.4 µg/mL (≈ 0.417 µM). The compound further registered a Therapeutic index in data set [2] of 3.1. Also, the IC50 in data set [3] is 17.4 nM. In addition, the “MEC against Aspergillus fumigatus (akuB^Ku80)” value in the data set on Aspergillus fumigatus is 0.3 µg/mL.

On to `CC[C@@H]1/C=C(\C)C[C@H](C)C[C@H](OC)[C@H]2O[C@@](O)(C(=O)C(=O)N3CCCC[C@H]3C(=O)O[C@H](/C(C)=C/C3CC[C@@H](O)[C@H](OC)C3)[C@H](C)[C@@H](O)C/C1=N/NS(=O)(=O)c1ccc(C)cc1)[C@H](C)C[C@@H]2OC` (stereo partly shown) [JH-FK-13], for which the “solubility during microdilution broth assays” value in data set [1] is given as “exhibited solubility issues”. Moreover, in the data set on Cryptococcus neoformans (Table 8, read-out: H99 MIC90), the MIC was greater than 50 µg/mL. For the same compound, the half-inhibitory concentration (IC50) in data set [3] is greater than 200 nM.

Values taken from US20260315446A1, “ANTIFUNGAL COMPOUNDS AND USES THEREOF” (priority 2023, published 2026).
